# Measured values as given in patent US20210052741A1, “GENE THERAPY METHODS AND COMPOSITIONS USING AUXOTROPHIC REGULATABLE CELLS” (AUXOLYTIC LTD, priority 2018, published 2021).
# Several values for one entry are separate records, joined by “and”; a condition that tells them apart may be missing. Identical values can stand only once.
# B1: UMPS-7: sgRNA for UMPS exon 1, target sequence + PAM … TGG (SEQ ID NO: 5); gRNA SEQ ID NO: 1 (nucleic acid)
# guide: GCCCCGCAGAUCGAUGUAGAGUUUUAGAGCUAGAAAUAGCAAGUUAAAAUAAGGCUAGUCCGUUAUCAACUUGAAAAAGUGGCACCGAGUCGGUGCUUUU
# modifications: listed as RNA, chemistry not given here
# Key:
# [1] = test system: UMPS edited T cells; experiment: TIDE analysis of UMPS InDels in mixed UMPS edited population; assay type: cell-based, human
# Protocol: Sanger sequencing of the UMPS locus was performed using UMPS-O-1 and UMPS-O-2, with the region amplified using PHUSION™ Hot Start Flex 2x Master Mix (New England Biolabs, Inc.). Sanger sequencing traces were analyzed by TIDE analysis (see, Brinkman et al, 2014, Nucleic Acids Res. 42(22):e168), which is hereby incorporated by reference in its entirety) to identify insertions and deletions (InDels) after editing. InDel quantification was performed on the sequences using the TIDE online tool (www.deskgen.com/landing/tide.html) (See, M. Sadelain, N. Engl. J. Med. 365, 1735-7 (2011), which is hereby incorporated by reference in its entirety.
# T Cells were electroporated and edited as in Example 2 and allowed to recover for a 4-day period in medium with serum, uridine, and UMP. On day 4, cells were shifted to UMP, uridine, or uracil source media. […]
# To confirm the results on the genomic level, genomic DNA was harvested at the end of the experiment and InDels were quantified (FIG. 5D-FIG. 5E). FIG. 5D compares the frequency of InDels in different culture conditions for cells not exposed to 5-FOA.
# [2] = test system: CCR5 knockout T cells; experiment: Growth time course with/without UMP or uridine; assay type: cell-based, human; settings: metabolite 250 μg/ml
# Protocol: (§1) Genomic DNA was harvested using QUICKEXTRACT™ DNA Extraction Kit (Epicentre). Cells were counted on an automated cell counter using Trypan blue staining or on a CytoFLEX flow cytometer (Beckman Coulter) with automatic plate reader using COUNTBRIGHT™ beads (ThermoFisher) as a reference for normalizing the values. Alternatively, cells were analyzed after staining with fluorochrome-labelled antibodies (Biolegend) on an ACCURI™ C6 flow cytometer (BD Biosciences), which also measures volumes, or a FACS ARIA™ II SORP cell sorter (BD Biosciences). Data was analyzed using Excel (Microsoft) and FlowJo software (Tree Star).
# (§2) T Cells were electroporated and edited as in Example 2 and allowed to recover for a 4-day period in medium with serum, uridine, and UMP. On day 4, cells were shifted to UMP, uridine, or uracil source media.
# (§3) To evaluate whether the UMPS knockout leads to differential cell proliferation if cultured without the addition of Uridine or Uridine monophosphate (UMP), the cell counts in culture were followed over time by automatic cell counting with Trypan blue staining. UMPS knockout led to lower cell counts from day 2 after electroporation, compared to cells that were mock electroporated or electroporated using Cas9 targeting a different genomic locus (i.e., CCR5) (FIG. 5B).
# [3] = test system: Mock T cells; experiment: Growth time course with/without UMP or uridine; assay type: cell-based, human; settings: metabolite 250 μg/ml
# Protocol: as §1, §2, §3
# [4] = test system: UMPS knockout T cells; experiment: Growth time course with/without UMP or uridine; assay type: cell-based, human
# Protocol: as §1, §2, §3
# [5] = test system: Mock T cells; experiment: 5-FOA selection, cell counts after 4 days; assay type: cell-based, human
# Protocol: (§4) 5-FOA selects for uracil auxotrophic cells in other organisms (e.g. Boeke et al. 1984, Mol. Gen. Genet. 197(2):345-6), which is hereby incorporated by reference in its entirety). To investigate the potential utility of 5-FOA for the selection of uracil auxotrophs among human cells, the UMPS gene was targeted in human T cells by Cas9-gRNA complex electroporation followed by recovery (as shown in Example 2) followed by an assay of resistance to 5-FOA treatment (FIG. 3A). Cells were grown in 5-FOA and a variety of combinations of serum and uracil sources for 4 days before cell counting was performed.
# [6] = test system: UMPS-7 targeted T cells; experiment: 5-FOA selection, cell counts after 4 days; assay type: cell-based, human
# Protocol: as §4
# [7] = test system: UMPS knockout T cells; experiment: Uracil auxotrophy growth assay after 5-FOA selection; assay type: cell-based, human; settings: after 4 days 5-FOA selection, 4 days in supplemented media, without serum
# Protocol: To assay whether or not the cells selected for by 5-FOA treatment were uracil auxotrophs, mock or UMPS targeted T cells were exposed to 5-FOA as shown in Example 4. Following 4 days of 5-FOA selection, the population of cells was split into an uracil containing media (UMP, uridine or both) and an uracil deficient media. A growth assay was subsequently performed by cell counting after following 4 days incubation in test media (Day 8) (FIG. 4A). In all cases, cell growth in the mock targeted cell cultures was negligible and independent of uracil source supplementation—indicating successful killing of non-UMPS targeted cells during the 5-FOA selection step (FIG. 4B-FIG. 4D).
# [8] = test system: UMPS wild-type K562 cells; experiment: K562 xenograft model, bioluminescence imaging; assay type: in vivo, NSG mice; settings: subcutaneous xenograft, normal or UTA supplemented food
# Description: (§5) For the K562 xenograft assay, 6 to 12 weeks old male NOD SCID gamma mouse (NSG) mice were transplanted with 1×10^6 K562 cells resuspended in […]® protein mixture (Corning, Inc.) 1:1 diluted with PBS under anesthesia. All animals were kept and handled according to institutional guidelines and the experimental protocol was approved by Stanford University's Administrative Panel on Laboratory Animal Care.
# (§6) The previously engineered UMPS^KO/KO K562 cell line expressing firefly luciferase (FLuc) was used in a xenograft model in NSG mice. […] Cas9 RNP is targeted to exon 1 of the HBB locus with a guide RNA and a DNA donor template transduced by rAAV6 which carries a FLuc-2A-GFP-polyA cassette under control of the SFFV promoter. FACS analysis was performed four days after targeting of K562 cells to evaluate GFP expression before sorting of the GFP+ population. In a control group administered the AAV only, 1.61% of the cells were GFP+, and […].
# (§7) UTA was acquired from Accela ChemBio Inc. and added to make the 8% (w/w) to Teklad mouse food (Envigo) and the food irradiated before use. […]
# (§8) UMPS^KO/KO K562 cells or control cells were transplanted subcutaneously and observed weekly with bioluminescence imaging. Luminescence imaging of K562 cells was performed 5 minutes after intraperitoneal (ip) injection of 125 mg/kg D-Luciferin (PerkinElmer) on an IVIS Spectrum imaging system (PerkinElmer). […]
# [9] = test system: UMPS^KO/KO K562 cells; experiment: K562 xenograft model, bioluminescence imaging; assay type: in vivo, NSG mice; settings: subcutaneous xenograft, food with 8% UTA vs food without UTA
# Description: as §5, §6, §7, §8
# [10] = test system: UMPS^KO/KO engineered hES cells; experiment: Teratoma formation from engineered hES cells; assay type: in vivo, NSG mice
# Protocol: To determine whether the safety switch can eradicate teratomas that originate from pluripotent cells, iPSCs or ES cells that were genetically modified (or control cells) were transplanted into mice. The cells expressed luciferase for in vivo detection. 1×10^6 UMPS-engineered hESCs were resuspended in a 100 μl of […]® protein mixture (Corning, Inc.) and PBS mixture and injected into the gastrocnemius muscle of the right hind leg of anesthetized NSG mice. The mice were followed up for tumor formation by tumor size measurement and by bioluminescence imaging. After establishment of tumors, whether withdrawal of Uridine triacetate (UTA) led to tumor regression was tested. At the endpoint (tumor sizes above 1.7 cm or impairment of mouse activity, otherwise 24 weeks) tumor was explanted and fixated for histological analysis.
# Auxotrophic cell proliferation of the UMPS^KO/KO engineered hES cells in vivo was also analyzed. […] Bone marrow is analyzed at the time that the animal dies or is sacrificed (latest 16 weeks after injection). […] Groups were compared by statistical tests as indicated using Prism 7 (GraphPad).
# [11] = cited from earlier work
# [12] = test system: UMPS locus; experiment: InDel quantification by ICE and ICE-D in activated T cells; assay type: cell-based, human; settings: for ICE InDels (%) / ICE-D InDels (%): Cas9 RNP electroporated into activated T cells, 4 days
# Description: sgRNAs were acquired with chemical modifications from Synthego Corporation. The sgRNAs were complexed with Cas9 protein (IDT) at a molar ration of 2.5:1 (sgRNA:protein) and electroporated into activated T cells using a 4D-NUCLEOFECTOR™ system (Lonza). 4 days later, cells were harvested, and genomic DNA extracted using QUICKEXTRACT™ DNA Extraction Kit (Epicentre) according to the manufacturer's protocol. The sgRNA target site was amplified with specific primers (Table 18) and the amplicon sequenced by Sanger sequencing (MCLab, South San Francisco).
# InDel quantification was performed on the sequences using the interference of CRISPR edits (ICE) and ICE-D online tools (ice.synthego.com) (FIG. 5A).
# [13] = cells not exposed to 5-FOA, end of experiment, metabolite 250 μg/ml
# [14] = UMPS knockout, metabolite 250 μg/ml
molecule,measurement,setting,value
"O=c1ccn([C@@H]2O[C@H](COP(=O)(O)O)[C@@H](O)[C@H]2O)c(=O)[nH]1 [UMP, Uridine monophosphate]","Alleles with frameshift InDels, Percent of alleles (without 5-FOA)","[1]; TIDE, day 8, metabolite 250 μg/ml",46.1%
same,"Alleles with InDels, Percent of alleles (without 5-FOA)","[1]; TIDE, metabolite 250 μg/ml",71.1%
same,"frameshift InDel frequency, Percent",[1]; [13],46.1%
same,"overall InDel frequency, Percent (%)",[1]; [13],71.1%
same,"Predicted viable cell counts, Cells with In-frame InDel","[1]; day 8, metabolite 250 μg/ml",908000
same,"Predicted viable cell counts, Cells with frameshift InDel","[1]; day 8, metabolite 250 μg/ml",1670000
same,"Predicted viable cell counts, Cells without InDel","[1]; day 8, metabolite 250 μg/ml",1049070
same,"Cell density, Day 1",[2],1.02E+06 cells per ml
same,"Cell density, Day 2",[2],1.80E+06 cells per ml
same,"Cell density, Day 4",[2],3.32E+06 cells per ml
same,"Cell density, Day 6",[2],3.80E+06 cells per ml
same,"Cell density, Day 8",[2],4.03E+06 cells per ml
same,"Cell density, Day 1",[3],9.83E+05 cells per ml
same,"Cell density, Day 2",[3],2.01E+06 cells per ml
same,"Cell density, Day 4",[3],3.80E+06 cells per ml
same,"Cell density, Day 6",[3],4.18E+06 cells per ml
same,"Cell density, Day 8",[3],3.90E+06 cells per ml
same,"Cell density, Day 1",[4]; [14],8.74E+05 cells per ml
same,"Cell density, Day 2",[4]; [14],1.86E+06 cells per ml
same,"Cell density, Day 4",[4]; [14],3.47E+06 cells per ml
same,"Cell density, Day 6",[4]; [14],3.88E+06 cells per ml
same,"Cell density, Day 8",[4]; [14],3.63E+06 cells per ml
same,"Number of viable cells per ml, Day 1",[4]; [14],874000 cells per ml
same,"Number of viable cells per ml, Day 2",[4]; [14],1860000 cells per ml
same,"Number of viable cells per ml, Day 4",[4]; [14],3470000 cells per ml
same,"Number of viable cells per ml, Day 6",[4]; [14],3880000 cells per ml
same,"Number of viable cells per ml, Day 8",[4]; [14],3630000 cells per ml
same,growth of UMPS edited culture,[4]; exogenous uracil source 250 μg/ml,rescued the growth of an UMPS edited culture to the same level as mock edited cells
same,cell proliferation after UMPS knockout,[4]; supplemented at 250 μg/ml,not impaired
same,Average of cells per volume unit,"[5]; Mock, 4 days in 5-FOA without serum, with substrate",24770.99 cells per volume unit
same,survival in 5-FOA compared to control,[5]; mock treated cells,improved the survival
same,survival in 5-FOA compared to control,[6]; UMPS targeted cells,improved the survival
same,Average of cells per volume unit,"[6]; UMPS-7, 4 days in 5-FOA without serum, with substrate",58299.26 cells per volume unit
same,Cells counts on Day 8,[7],9978 and 6392
"CC(=O)OC[C@H]1O[C@@H](n2ccc(=O)[nH]c2=O)[C@H](OC(C)=O)[C@@H]1OC(C)=O [UTA, uridine triacetate]",tumor burden of UMPS wild-type K562 cells,[8],increase in tumor burden
same,luminescence of UMPS^KO/KO K562-derived tumors,[9],only increased in the mice fed with 8% UTA
same,"Teratoma weight, Weight [g]","[10]; NSG mice fed 8% (w/w) UTA food, 7 weeks after cell injection into hind leg, per mouse",3.11 g and 0.033 g and 2.92 g and 1.54 g and 0.937 g
same,teratoma formation,"[10]; mice fed with UTA, 7 weeks after cell injection",large teratomas
same,increase of uridine serum levels,"[11]; humans and mouse models, administration of prodrug",greater than 10 fold
same,tolerability,"[11]; mice, food enriched with 8% (w/w) UTA",well tolerated
"UMPS-6: sgRNA for UMPS exon 1, target sequence + PAM GGCGGTCGCTCGTGCAGCTT TGG (SEQ ID NO: 6) (guide GGCGGTCGCTCGTGCAGCTTTGG; listed as DNA, chemistry not given here; the letters are possibly those of the target site; listed as Homo sapiens)",ICE InDels (%),[12],12%
same,ICE-D InDels (%),[12],11%
"UMPS-3: sgRNA for UMPS exon 1, target sequence + PAM CCCCGCAGATCGATGTAGAT GGG (SEQ ID NO: 4) (guide CCCCGCAGATCGATGTAGATGGG; target sequence plus PAM, further chemistry not given here; listed as Homo sapiens)",ICE InDels (%),[12],45%
same,ICE-D InDels (%),[12],43%
B1,ICE InDels (%),[12],39%
same,ICE-D InDels (%),[12],93%
same,type of edits created,[12]; detectable by ICE-D but not by ICE or TIDE,high proportion of large (greater than 30 bp) deletions
same,frequency of InDels in initial screening,[12]; initial sgRNA screening,highest frequency of InDels
